# US8916501B2, “Herbicidal compositions” (BASF SE, priority 2010, dated 2014)
# Tests used:
# Conditions in all cases: scale 0 to 100
# SETFA [1] = test: greenhouse post-emergence treatment, herbicidal action against SETFA; assay type: in vivo, Setaria faberi
# Description: (§1) The seeds of the test plants were sown separately for each species. For the post-emergence treatment, the test plants were first grown to a height of 1 to 15 cm, depending on the plant habit, and only then treated with the active ingredients which had been suspended or emulsified in water. For this purpose, the test plants were either sown directly and grown in the same containers, or they were first grown separately as seedlings and transplanted into the test containers a few days prior to treatment. The respective benzoxazinone of formula I was formulated as a 5% by weight strength emulsion concentrate, and the safener of formula II as a 5% by weight emulsion concentrate. Optional component C can be used in its appropriate available formulation type. The benzoxazinone of formula I, the safener of formula II, and optional component C were introduced to the spray liquid with the amount of solvent system used for applying the active compound. The test period extended over 20 days. During this time, the plants were tended, and their response to the treatments with active compound was evaluated. Depending on the species, the plants were kept at 10-25° C. or 20-35° C. During the test period the plants were tended, and their response to the individual treatments was evaluated. Evaluation was carried out using a scale from 0 to 100. […]
# TRZAW = test: greenhouse pre-emergence treatment, damage to crop plant TRZAW; assay type: in vivo
# Description: (§2) The seeds of the test plants were sown separately for each species. For the pre-emergence treatment, the active ingredients, which had been suspended or emulsified in water, were applied directly after sowing by means of finely distributing nozzles. The containers were irrigated gently to promote germination and growth and subsequently covered with transparent plastic hoods until the plants had emerged. This cover caused uniform germination of the test plants, unless this has been impaired by the active ingredients. The respective benzoxazinone of formula I was formulated as a 5% by weight strength emulsion concentrate, and the safener of formula II as a 5% by weight emulsion concentrate. Optional component C can be used in its appropriate available formulation type. The benzoxazinone of formula I, the safener of formula II, and optional component C were introduced to the spray liquid with the amount of solvent system used for applying the active compound. The test period extended over 20 days. During this time, the plants were tended, and their response to the treatments with active compound was evaluated. Depending on the species, the plants were kept at 10-25° C. or 20-35° C. During the test period the plants were tended, and their response to the individual treatments was evaluated. Evaluation was carried out using a scale from 0 to 100. 100 means no emergence of the plants, or complete destruction of at least the aerial moieties, and 0 means no damage, or normal course of growth. A good herbicidal activity is given at values of at least 70 and a very good herbicidal activity is given at values of at least 85. A safener action is present if the damage to the crop plant caused by a mixture according to the present invention which contains a benzoxazinone of formula I and a safener of formula II is less than the damage caused when the benzoxazinone of formula I (optionally in mixture with a further herbicide C) according to the present invention is used without the safener of formula II.
# ORYSA [2] = test: greenhouse post-emergence treatment, damage to crop plant ORYSA; assay type: in vivo, Oryza sativa
# Description: as §1
# ORYSA [3] = test: greenhouse pre-emergence treatment, damage to crop plant ORYSA; assay type: in vivo, Oryza sativa
# Description: as §2
# SETFA [4] = test: greenhouse pre-emergence treatment, herbicidal action against SETFA; assay type: in vivo, Setaria faberi
# Description: as §2, with “85.” for “85. A safener action is present if the damage to the crop plant caused by a mixture according to the present invention which contains a benzoxazinone of formula I and a safener of formula II is less than the damage caused when the benzoxazinone of formula I (optionally in mixture with a further herbicide C) according to the present invention is used without the safener of formula II.”
# ZEAMX = test: greenhouse pre-emergence treatment, damage to crop plant ZEAMX; assay type: in vivo, Zea mays
# Description: as §2
# [5] = Example 4, I.a.35 25 g/ha alone
# [6] = Example 1, I.a.35 50 g/ha alone
# [7] = Example 2, I.a.35 25 g/ha alone
# [8] = Example 3, I.a.35 12.5 g/ha alone
# [9] = Example 4, II.a.12 75 g/ha alone
# [10] = Example 1, II.a.12 150 g/ha alone
# [11] = Example 2, II.a.12 75 g/ha alone
# [12] = Example 3, II.a.12 150 g/ha alone
structure (smiles),measurement,setting,value
"C#CCN1C(=O)C(F)(F)Oc2cc(F)c(-n3c(=O)n(C)c(=S)n(C)c3=O)cc21 [I.a.35, 1,5-dimethyl-6-thioxo-3-(2,2,7-trifluoro-3-oxo-4-(prop-2-ynyl)-3,4-dihydro-2H-benzo[b][1,4]oxazin-6-yl)-1,3,5-triazinane-2,4-dione]",herbicidal action against SETFA,SETFA [1]; [5],100
same,damage to crop plant TRZAW,TRZAW; [6],65
same,damage to crop plant TRZAW,TRZAW; [7],60
same,damage to crop plant TRZAW,TRZAW; [8],45
same,damage to crop plant ORYSA,ORYSA [2]; [5],60
same,damage to crop plant ORYSA,ORYSA [3]; [6],65
same,damage to crop plant ORYSA,ORYSA [3]; [7],40
same,damage to crop plant ORYSA,ORYSA [3]; [8],30
same,herbicidal action against SETFA,SETFA [4]; [6],100
same,herbicidal action against SETFA,SETFA [4]; [7],100
same,herbicidal action against SETFA,SETFA [4]; [8],90
same,damage to crop plant ZEAMX,ZEAMX; [6],65
same,damage to crop plant ZEAMX,ZEAMX; [7],40
same,damage to crop plant ZEAMX,ZEAMX; [8],25
CNC(=O)Nc1ccc(S(=O)(=O)NC(=O)c2ccccc2OC)cc1 [II.a.12],herbicidal action against SETFA,SETFA [1]; [9],0
same,damage to crop plant TRZAW,TRZAW; [10],0
same,damage to crop plant TRZAW,TRZAW; [11],0
same,damage to crop plant TRZAW,TRZAW; [12],0
same,damage to crop plant ORYSA,ORYSA [2]; [9],0
same,damage to crop plant ORYSA,ORYSA [3]; [10],0
same,damage to crop plant ORYSA,ORYSA [3]; [11],0
same,damage to crop plant ORYSA,ORYSA [3]; [12],0
same,herbicidal action against SETFA,SETFA [4]; [10],0
same,herbicidal action against SETFA,SETFA [4]; [11],0
same,herbicidal action against SETFA,SETFA [4]; [12],0
same,damage to crop plant ZEAMX,ZEAMX; [10],0
same,damage to crop plant ZEAMX,ZEAMX; [11],0
same,damage to crop plant ZEAMX,ZEAMX; [12],0
